Patent publication US20220125778A1 (priority 2019, published 2022)
Where two headings read alike, the source gives them in different places.

Target: β-glucuronidase activity in live E. coli (4MUG to 4MU conversion) (Escherichia coli, UniProt P05804)
Test: Cell-based E. coli assay with 4MUG substrate, with and without esterase pre-treatment of prodrug
Details: for IC50: live E. coli
Method: For esterase activation, the prodrug is treated with 5 mg/mL esterase for 30 mins at 37° C. to cleave the ester bonds yielding the glucuronide moiety. Following treatment, an inhibitor titration ranging from 10 uM to 10 pM is mixed and preincubated with live E. coli for 5 mins or 4 hours at 37° C. in a microplate with assay buffer (HEPES pH 7, NaCl). Chemically synthesized SY65-G is included as a positive control. Following preincubation, 4-methylumbelliferyl glucuronide (4MUG) is added at a final concentration of 100 uM to the cell and inhibitor mixture. The conversion of 4MUG to 4MU is detected via fluorescence (Ex./Em.: 360/460). […] The untreated prodrug is not active.

[1] = 5 min preincubation, no esterase treatment, read-out: Potency, pre-incubation time 5 min
[2] = 5 min preincubation, treated with 5 mg/mL esterase for 30 mins at 37° C., read-out: Potency, pre-incubation time 5 min, + Esterase
[3] = 4 hour preincubation, no esterase treatment, read-out: Potency, pre-incubation time 4 hour
[4] = 4 hour preincubation, treated with 5 mg/mL esterase for 30 mins at 37° C., read-out: Potency, pre-incubation time 4 hour, + Esterase

Sequence of β-glucuronidase activity in live E. coli (4MUG to 4MU conversion) (P05804 whole entry): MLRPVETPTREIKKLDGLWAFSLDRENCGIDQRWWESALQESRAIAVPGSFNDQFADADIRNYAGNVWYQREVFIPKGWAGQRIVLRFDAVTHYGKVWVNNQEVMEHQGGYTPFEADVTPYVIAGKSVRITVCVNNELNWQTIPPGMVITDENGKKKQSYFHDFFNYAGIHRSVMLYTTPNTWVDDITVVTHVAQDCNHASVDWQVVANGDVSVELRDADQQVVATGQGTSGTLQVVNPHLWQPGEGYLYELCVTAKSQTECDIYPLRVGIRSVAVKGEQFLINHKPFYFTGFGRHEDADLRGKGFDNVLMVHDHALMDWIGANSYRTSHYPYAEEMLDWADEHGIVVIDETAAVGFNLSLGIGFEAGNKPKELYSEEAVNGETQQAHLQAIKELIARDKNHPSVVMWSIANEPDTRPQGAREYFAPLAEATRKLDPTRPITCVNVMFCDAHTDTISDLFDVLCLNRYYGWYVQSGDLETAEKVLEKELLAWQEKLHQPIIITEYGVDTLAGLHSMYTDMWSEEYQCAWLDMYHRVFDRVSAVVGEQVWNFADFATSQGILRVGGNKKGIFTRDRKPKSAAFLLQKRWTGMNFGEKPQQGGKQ

| Compound | IC50 [1] [nM] | IC50 [2] [nM] | IC50 [3] [nM] | IC50 [4] [nM] | Potency of esterase treated prodrug versus glucuronide positive control (esterase treated) | Activity of untreated prodrug in cell-based assay (without esterase treatment) |
| --- | --- | --- | --- | --- | --- | --- |
| Cc1cc(C)c2[nH]c(=O)c(CN(CCO[C@@H]3O[C@H](C(=O)O)[C@@H](O)[C@H](O)[C@H]3O)C(=O)Nc3ccccc3C(C)C)cc2c1 [SY65-G, (2S,3S,4S,5R,6R)-6-[2-[(6,8-dimethyl-2-oxo-1H-quinolin-3-yl)methyl-[(2-isopropylphenyl)carbamoyl]amino]ethoxy]-3,4,5-trihydroxy-tetrahydropyran-2-carboxylic acid] | 125 | 93 | 0.53 | 0.57 |  |  |
| COC(=O)[C@H]1O[C@@H](OCCN(Cc2cc3cc(C)cc(C)c3[nH]c2=O)C(=O)Nc2ccccc2C(C)C)[C@H](OC(C)=O)[C@@H](OC(C)=O)[C@@H]1OC(C)=O [SY65-G-Ac, Methyl (2S,3S,4S,5R,6R)-3,4,5-triacetoxy-6-[2-[(6,8-dimethyl-2-oxo-1H-quinolin-3-yl)methyl-[(2-isopropylphenyl)carbamoyl]amino]ethoxy]tetrahydropyran-2-carboxylate] | > 10000 | 156 | > 10000 | 0.52 | just as potent as the glucuronide positive control | not active |
